“Also recorded” adds a separate entry of the source.
Tests used:
Format in all cases: physicochemical
[1] = In vitro drug release from individual drug-polymer pills; details: 37° C., 200 rpm, 50 mL fluid; varying PCL molecular weight, coating, drug loading, SA/V ratio, excipients
From the text: FIGS. 11A-11E show fabrication and in vitro release of direct-acting antivirals (DAAs) from individual drug-polymer pills, according to one set of embodiments. FIG. 11A. Drug-polymer pills are made by mixing drug with either silicone or poly(ε-caprolactone) (PCL) and then casting into a Petri dish or a three-dimensional (3-D) printed mold. Drug-silicone pills are extracted using a biopsy punch, and drug-PCL pills are extracted with a razor blade. Pills are then spray-coated with a pan coater. A cross-sectional image of a PCL-coated drug-PCL pill is shown. FIG. 11B. In vitro release of sofosbuvir from a drug pill in water with varying molecular weight of PCL. FIG. 11C. In vitro release of daclatasvir from a drug pill in water with varying molecular weight of PCL and PCL coating. FIG. 11D. In vitro release of ledipasvir from a drug pill in acetonitrile with varying silicone hardness. FIG. 11E. In vitro release of ribavirin from a drug pill in water with molecular weight of PCL and drug loading percentage. Error bars represent SD for n=3 samples.
LA-DAAS prototyping and in vitro drug release. LA-DAAS were assembled and in vitro drug release was evaluated by High-Performance Liquid Chromatography (HPLC) as previously described, with modifications including novel formulations for DAAs (FIGS. 14A-14B).(17) The following drugs were acquired: sofosbuvir (Hefei Hirisun Pharmatech Co., Ltd, Hefei, China), daclatasvir and ledipasvir (Hangzhou APIChem Technology Co, Ltd., Hangzhou, Zhejiang, China), and ribavirin (ChemShuttle, Hayward, CA). […] Drug loading percentages were determined relative to the final polymer mixture weight: sofosbuvir (50%), daclastasvir (40%), ledipasvir (40%), and ribavirin (40%). […] Drug concentrations were then analyzed using an Agilent 1260 Infinity II HPLC system. […] For evaluation of the safety and residence time of the LA-DAAS, the animals were clinically assessed twice a day for evidence of GI obstruction including inappetence, abdominal distension, lack of stool, and vomiting. […]

[2] = Stability of drug-polymer pills in SGF (polymer protection metric); details: 3 days in SGF, 37° C., 200 rpm, n=3
Protocol: Drug-polymer pills were incubated in a shaking incubator at 37° C. and 200 rpm in 50 mL of SGF for 3 days with fluid replaced every day. Then, drug-polymer pills were transferred to acetonitrile for extraction of drug from the polymer pill. The average of extracted amount (n=3) was normalized to the average of extracted drug from drug-polymer pills placed directly in acetonitrile (n=3) to yield the polymer protection metric plotted. PCL protects 89.75% of sofosbuvir, 82.39% of daclatasvir, and 87.11% of ribavirin. Silicone protected 98.96% of ledipasvir.

[3] = Stability of DAAs in simulated gastric fluid (SGF, pH=2), HPLC
Protocol: FIGS. 17A-17C show stability of DAAs in simulated gastric fluid (SGF, pH=2), according to one set of embodiments. All DAAs were dissolved in SGF and placed in a shaking incubator (200 rpm, 37° C.). Samples were collected at defined time points for up to 4 weeks and analyzed by HPLC to quantify stability. […] FIG. 17A. Stability of sofosbuvir in SGF. FIG. 17B. Stability of daclatasvir in SGF. FIG. 17C. Stability of ribavirin in SGF. Error bars represent SD for n=3 samples in each group.

| SMILES | in vitro release rate from drug-polymer pills (trend, words) [1] | polymer protection (drug extracted after SGF, normalized to pills placed directly in acetonitrile) ([2]; drug-silicone pill) | stability in SGF ([3]; SGF pH=2, no HPLC signal detected at t=0) | polymer protection (drug extracted after SGF, normalized to pills placed directly in acetonitrile) ([2]; drug-PCL pill) | degradation in SGF ([3]; SGF pH=2, 37° C., 200 rpm, within 7 days) |
| --- | --- | --- | --- | --- | --- |
| COC(=O)N[C@H](C(=O)N1CC2(CC2)C[C@H]1c1ncc(-c2ccc3c(c2)C(F)(F)c2cc(-c4ccc5nc([C@@H]6[C@H]7CC[C@H](C7)N6C(=O)[C@@H](NC(=O)OC)C(C)C)[nH]c5c4)ccc2-3)[nH]1)C(C)C [ledipasvir] | faster release rate | 98.96% | degraded immediately in acid | – | – |
| NC(=O)c1ncn([C@@H]2O[C@H](CO)[C@@H](O)[C@H]2O)n1 [ribavirin] | increased at higher PCL molecular weight and with a higher drug loading percentage | – | – | 87.11% | – |
| CC(C)OC(=O)[C@H](C)N[P@](=O)(OC[C@H]1O[C@@H](n2ccc(=O)[nH]c2=O)[C@](C)(F)[C@@H]1O)Oc1ccccc1 [sofosbuvir] | increased as the molecular weight of PCL increased from 25,000 to 80,000; also recorded: Increasing the surface area to volume ratio of the pill also increased the sofosbuvir release rate; also recorded: increases the release rate of sofosbuvir; also recorded: Drug release increases as the SA/V ratio increases | – | – | 89.75% | 95% |
